Calls of active or inactive are those of the source. Cut-off read from the data, not from the text of the source, for most assays here: actives have a measured EC50 and inactives only a lower limit.
Columns and labels:
[1] = Luminescence Cell-Based Dose Confirmation HTS to Identify Inhibitors of Platelet Dense Granule Release. [Related pubchem assays: 1663 (Primary HTS), 1678 (Summary of Project)]; assay type: functional
[2] = biological target: Luciferin 4-monooxygenase (Photinus pyralis, UniProt P08659); assay: firefly luciferase enzyme inhibitors, dose response, biochemical, luminescence (AID 1891)
[3] = biological target: T1, Protein RecA (Mycobacterium tuberculosis, UniProt P9WHJ3); assay: Fluorescence Cell-Free Homogeneous Dose Retest to Identify Inhibitors of RecA-Intein Splicing Activity. [Related pubchem assays (depositor defined):AID2097, AID2223, AID489010, AID492950]; assay type: functional
T1 sequence (P9WHJ3 whole entry): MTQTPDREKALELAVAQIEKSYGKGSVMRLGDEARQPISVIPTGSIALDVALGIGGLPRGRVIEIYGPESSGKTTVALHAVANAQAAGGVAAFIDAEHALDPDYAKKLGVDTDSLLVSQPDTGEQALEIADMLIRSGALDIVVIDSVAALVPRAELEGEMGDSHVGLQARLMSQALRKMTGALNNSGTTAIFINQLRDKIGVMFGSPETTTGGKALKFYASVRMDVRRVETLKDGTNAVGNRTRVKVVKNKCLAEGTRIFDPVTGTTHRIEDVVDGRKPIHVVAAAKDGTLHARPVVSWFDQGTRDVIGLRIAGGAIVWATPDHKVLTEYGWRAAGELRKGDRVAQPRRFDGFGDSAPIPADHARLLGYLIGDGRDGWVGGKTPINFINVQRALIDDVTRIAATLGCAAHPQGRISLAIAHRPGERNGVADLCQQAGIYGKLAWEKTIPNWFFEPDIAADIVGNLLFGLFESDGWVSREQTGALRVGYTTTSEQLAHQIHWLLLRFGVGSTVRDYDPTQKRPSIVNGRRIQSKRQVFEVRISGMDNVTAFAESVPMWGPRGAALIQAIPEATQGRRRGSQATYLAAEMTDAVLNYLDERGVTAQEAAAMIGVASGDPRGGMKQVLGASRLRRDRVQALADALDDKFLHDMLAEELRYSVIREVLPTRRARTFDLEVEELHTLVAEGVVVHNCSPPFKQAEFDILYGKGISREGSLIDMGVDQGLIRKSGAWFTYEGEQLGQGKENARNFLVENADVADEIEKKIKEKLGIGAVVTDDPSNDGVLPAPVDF

[4] = biological target: T2, Replicative DNA helicase DnaB (Mycobacterium tuberculosis, UniProt P9WMR3); assay: DnaB intein splicing inhibitors, dose response, biochemical, cell-free fluorescence (AID 449749); assay type: functional
T2 sequence (P9WMR3 whole entry): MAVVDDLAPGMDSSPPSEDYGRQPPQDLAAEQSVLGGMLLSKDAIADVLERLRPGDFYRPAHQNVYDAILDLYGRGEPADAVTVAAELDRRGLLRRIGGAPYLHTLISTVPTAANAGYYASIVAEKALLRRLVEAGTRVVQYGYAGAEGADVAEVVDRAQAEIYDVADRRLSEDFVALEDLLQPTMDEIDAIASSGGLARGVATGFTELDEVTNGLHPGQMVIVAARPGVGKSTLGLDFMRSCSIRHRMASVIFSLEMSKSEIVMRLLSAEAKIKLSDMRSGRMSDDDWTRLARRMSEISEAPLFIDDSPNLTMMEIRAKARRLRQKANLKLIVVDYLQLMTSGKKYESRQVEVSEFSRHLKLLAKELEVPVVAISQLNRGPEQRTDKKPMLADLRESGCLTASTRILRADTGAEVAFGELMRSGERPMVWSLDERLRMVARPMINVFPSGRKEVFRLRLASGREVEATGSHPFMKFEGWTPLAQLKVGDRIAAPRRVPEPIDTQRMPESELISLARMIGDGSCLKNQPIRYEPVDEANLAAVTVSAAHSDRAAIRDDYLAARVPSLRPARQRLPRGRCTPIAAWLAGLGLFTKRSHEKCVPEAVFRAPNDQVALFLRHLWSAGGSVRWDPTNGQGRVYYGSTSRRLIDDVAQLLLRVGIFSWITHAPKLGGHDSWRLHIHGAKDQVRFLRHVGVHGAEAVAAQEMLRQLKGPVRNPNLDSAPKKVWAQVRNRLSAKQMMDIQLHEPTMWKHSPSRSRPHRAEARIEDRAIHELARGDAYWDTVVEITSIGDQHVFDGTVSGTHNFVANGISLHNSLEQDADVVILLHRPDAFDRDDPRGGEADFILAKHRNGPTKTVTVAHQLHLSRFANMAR

[5] = biological target: T3, RNA-binding protein pos-1 (Caenorhabditis elegans, UniProt G5EF15); assay: inhibitors of POS-1/mex-3 RNA binding, dose response, biochemical, fluorescence polarization (AID 1964);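 note: purified POS-1 fused to maltose binding protein made in E. coli; potency of compounds blocking POS-1 binding to fluorescent RNA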
T3 sequence (G5EF15 whole entry): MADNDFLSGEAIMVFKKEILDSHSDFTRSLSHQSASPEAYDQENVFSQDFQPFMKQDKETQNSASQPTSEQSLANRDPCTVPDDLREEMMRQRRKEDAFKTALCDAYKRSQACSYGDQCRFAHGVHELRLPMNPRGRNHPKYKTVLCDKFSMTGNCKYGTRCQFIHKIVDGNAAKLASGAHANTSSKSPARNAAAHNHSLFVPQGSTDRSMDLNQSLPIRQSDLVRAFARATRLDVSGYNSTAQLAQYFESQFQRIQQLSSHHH

[6] = biological target: T4, Zinc finger protein mex-5 (Caenorhabditis elegans, UniProt Q9XUB2); assay: MEX-5/TCR-2 RNA interaction inhibitors, dose response, biochemical, C. elegans, fluorescence polarization (AID 1960)
T4 sequence (Q9XUB2 whole entry): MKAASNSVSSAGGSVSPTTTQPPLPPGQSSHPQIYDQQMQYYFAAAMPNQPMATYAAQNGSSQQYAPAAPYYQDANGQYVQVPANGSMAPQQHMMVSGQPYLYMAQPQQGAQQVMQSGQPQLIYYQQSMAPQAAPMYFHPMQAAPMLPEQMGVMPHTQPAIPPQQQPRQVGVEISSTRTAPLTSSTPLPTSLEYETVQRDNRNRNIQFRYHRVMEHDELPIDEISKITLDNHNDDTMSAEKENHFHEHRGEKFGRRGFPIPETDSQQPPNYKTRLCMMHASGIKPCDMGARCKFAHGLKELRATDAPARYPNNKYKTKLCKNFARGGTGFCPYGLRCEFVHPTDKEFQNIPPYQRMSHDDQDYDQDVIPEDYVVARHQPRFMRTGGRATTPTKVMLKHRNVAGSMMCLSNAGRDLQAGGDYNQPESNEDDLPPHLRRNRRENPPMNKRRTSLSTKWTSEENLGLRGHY

[7] = biological target: Cytochrome P450 3A4 (Homo sapiens, UniProt P08684);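 note: CYP3A4 tested as one member of a cytochrome P450 panel screen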
[8] = tested on: Streptococcus; assay: Group A Streptococcus viability loss, dose response, counter-screen for streptokinase expression inhibitor project, luminescence, BacTiterGlo (AID 1915); assay type: functional, organism-based;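 note: potency for reduction of bacterial viability or growth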
[9] = Luminescence Cell-Based Dose Retest to Confirm Inhibitors of Cancer Stem Cells. [Related pubchem assays (depositor defined):AID2717, AID2721]; assay type: functional; conditions: Homo sapiens
[10] = tested on: Streptococcus sp. 'group A'; assay: growth inhibition of control SK(-) GAS strain, dose response, counter-screen for streptokinase expression inhibitor project, luminescence, kanamycin, BacTiterGlo, confirmation (AID 1900); assay type: functional, organism-based

Sequence of Luciferin 4-monooxygenase (P08659 whole entry): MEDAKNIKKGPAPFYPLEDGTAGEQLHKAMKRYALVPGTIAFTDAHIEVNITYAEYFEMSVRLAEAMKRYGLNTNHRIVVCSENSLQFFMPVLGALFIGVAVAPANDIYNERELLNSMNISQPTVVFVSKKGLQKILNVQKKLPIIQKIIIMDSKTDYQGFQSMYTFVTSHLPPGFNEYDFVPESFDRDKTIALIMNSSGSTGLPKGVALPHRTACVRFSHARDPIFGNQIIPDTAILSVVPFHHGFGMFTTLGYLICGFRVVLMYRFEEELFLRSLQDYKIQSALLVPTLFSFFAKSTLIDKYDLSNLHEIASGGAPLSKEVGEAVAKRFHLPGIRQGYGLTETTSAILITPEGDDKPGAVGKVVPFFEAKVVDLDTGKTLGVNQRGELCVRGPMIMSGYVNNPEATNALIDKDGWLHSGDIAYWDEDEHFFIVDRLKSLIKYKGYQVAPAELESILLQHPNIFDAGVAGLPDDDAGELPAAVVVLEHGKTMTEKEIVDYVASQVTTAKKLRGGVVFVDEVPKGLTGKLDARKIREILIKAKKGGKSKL
Sequence of Cytochrome P450 3A4 (P08684 whole entry): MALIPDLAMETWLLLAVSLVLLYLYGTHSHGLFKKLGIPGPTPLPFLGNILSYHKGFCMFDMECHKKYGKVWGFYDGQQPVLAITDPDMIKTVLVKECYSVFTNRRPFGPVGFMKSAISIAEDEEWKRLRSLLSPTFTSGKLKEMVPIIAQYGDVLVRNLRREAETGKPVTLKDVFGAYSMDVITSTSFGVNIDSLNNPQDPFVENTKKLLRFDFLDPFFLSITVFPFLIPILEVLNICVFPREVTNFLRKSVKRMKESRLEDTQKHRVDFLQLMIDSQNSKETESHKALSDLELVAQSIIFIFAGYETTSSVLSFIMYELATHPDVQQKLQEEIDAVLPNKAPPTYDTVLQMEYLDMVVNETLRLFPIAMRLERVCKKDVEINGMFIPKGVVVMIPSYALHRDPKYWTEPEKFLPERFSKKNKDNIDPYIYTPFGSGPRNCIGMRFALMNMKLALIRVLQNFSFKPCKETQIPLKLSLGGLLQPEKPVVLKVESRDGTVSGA

| Compound | EC50 [1] | EC50 [2] | EC50 [5] | EC50 [6] | other results |
| --- | --- | --- | --- | --- | --- |
| Cc1ccc(C2CC(c3ccccc3OC(F)F)Nc3ncnn32)cc1 (stereo not given) | > 112 µM (not active) | > 112 µM (not active) | – | – | – |
| Cc1cccc(CCNC(=O)c2cc(S(=O)(=O)N3CCOCC3)cn2C)c1 | > 112 µM (not active) | > 112 µM (not active) | – | – | – |
| CC1CCCCN1Cc1nc2c(c(=O)n(C)c(=O)n2C)n1CCCc1ccccc1 (stereo not given) | > 112 µM (not active) | > 112 µM (not active) | – | – | – |
| COC(=O)c1c(NC(=O)/C=C/C(=O)O)sc(Cc2ccccc2)c1C | – | – | – | – | EC50 [3]: 7.93 µM (active); AC50 [4]: 3.23 µM (active) |
| Cc1cc(/C=C2/C(=O)NC(=O)N(c3ccc(Br)cc3)C2=O)c(C)n1C | – | – | 52.2 µM (active) | 53 µM (active) | – |
| Cc1ccccc1C1CC(c2ccccc2OC(F)F)Nc2ncnn21 (stereo not given) | > 112 µM (not active) | > 112 µM (not active) | – | – | – |
| CC1(C)CC(=O)C2=C(C1)OC(N)=C(C#N)[C@@H]2c1ccccc1[N+](=O)[O-] | – | – | 22.3 µM (inconclusive) | 23.9 µM (active) | – |
| COc1ccc(/C=C2\N=C(C)OC2=O)cc1OC | – | – | > 300 µM (not active) | > 300 µM (not active) | – |
| COc1ccc(C(=O)NC(=S)NC(C)(C)C)cc1Br | > 112 µM (not active) | > 112 µM (not active) | – | – | AC50 [7]: 14.1 µM (inconclusive) |
| CCCc1c(C(=O)NNc2cccc(Cl)c2)cnn1-c1ccccc1 | – | – | – | – | EC50 [3]: > 380 µM (inactive); AC50 [4]: 10.7 µM (active) |
| CC(C)=CCC/C(C)=C/Cc1c(O)ccc(C(=O)/C=C/c2ccc(O)cc2)c1O [XANTHOANGELOL] | – | – | – | – | EC50 [8]: 1.68 µM (active); AC50 [9]: 9.49 µM (active); EC50 [10]: 1.05 µM (active); EC50 [3]: 88.4 µM (active); AC50 [4]: 3.19 µM (active) |
| COc1cc(C(c2c(C)n[nH]c2O)c2c(C)n[nH]c2O)cc(OC)c1OC | – | – | – | – | EC50 [3]: 0.262 µM (active); AC50 [4]: 0.313 µM (active) |
| Oc1nc2ccc(Cl)cc2c(-c2ccccc2)c1SC(=S)N1CCCCC1 | – | – | – | – | EC50 [3]: > 380 µM (inactive); AC50 [4]: > 380 µM (inactive) |
| Nc1cccc2c(O)cccc12 | – | – | – | – | EC50 [3]: 15.5 µM (active); AC50 [4]: 22.1 µM (active) |
| CCCc1cc(C(=O)NC2CCCC2)no1 | > 112 µM (not active) | > 112 µM (not active) | – | – | – |
| O=C(O)c1ccccc1-n1c(-c2ccccc2)cc2c1CCCC2=O | – | – | > 300 µM (not active) | > 300 µM (not active) | – |
| CCOC(=O)Nc1ccc2c(COC(=O)CNS(=O)(=O)c3cccc(Br)c3)cc(=O)oc2c1 | > 112 µM (not active) | > 112 µM (not active) | – | – | – |
| N#CC1=C(N)C(C#N)(C#N)[C@H](c2ccsc2)[C@H]2COCC=C12 | – | – | > 300 µM (not active) | > 300 µM (not active) | – |
| Cc1ccc(S(=O)(=O)NCCC(=O)OCC(=O)NC(=O)c2cccn2C)cc1 | > 112 µM (not active) | > 112 µM (not active) | – | – | – |
| CCc1ccccc1N1C(=O)NC(=O)/C(=C\c2cc(C)n(C)c2C)C1=O | – | – | > 300 µM (not active) | > 300 µM (inconclusive) | – |
| Cc1cccc(-n2cnc3c(sc4nc(N5CCOCC5)c5c(c43)CCCC5)c2=O)c1 | 50 µM (active) | > 112 µM (not active) | – | – | – |
| Cc1ccccc1CCNC(=O)C1CCN(S(=O)(=O)c2ccc(-n3cnnn3)cc2)CC1 | > 112 µM (not active) | > 112 µM (not active) | – | – | – |
| N#Cc1c(C#N)c(-c2ccccc2)n(-c2ccc(C(=O)O)cc2)c1N | – | – | > 300 µM (not active) | > 300 µM (not active) | – |
